Assay results as given in patent US6916801B2, “7-Alkylidene-3-substituted-3-cephem-4-carboxylates as β-lactamase inhibitors” (Alamx, LLC, priority 2001, dated 2005).
pIC50: −log10 of the molar value. Like-named read-outs stand apart in the source and are kept apart here.

Key:
[1] = biological target: TEM-1, a Class A penicillinase (Escherichia coli, UniProt P62593); experiment: beta-lactamase inhibition, relative IC50 analysis by nitrocefin hydrolysis (class A enzyme); assay type: biochemical; conditions: class A β-lactamase; 10 minute incubation of enzyme (2.56 nM) and inhibitor; nitrocefin substrate
TEM-1, a Class A penicillinase, sequence (P62593 24-286 limits assumed): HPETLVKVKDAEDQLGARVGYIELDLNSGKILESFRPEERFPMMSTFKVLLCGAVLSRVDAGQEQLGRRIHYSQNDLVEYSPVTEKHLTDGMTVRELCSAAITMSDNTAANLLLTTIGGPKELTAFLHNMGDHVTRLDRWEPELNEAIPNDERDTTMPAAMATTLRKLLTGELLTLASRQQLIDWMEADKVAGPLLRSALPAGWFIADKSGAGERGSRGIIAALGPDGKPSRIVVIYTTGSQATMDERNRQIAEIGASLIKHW
Procedure: (§1) Representative compounds of formula (I) were evaluated as inhibitors of the Class C β-lactamase of Enterobacter cloacae P-99, a cephalosporinase, and TEM-1, a Class A penicillinase, by relative IC50 analysis. The IC50 value represents the concentration of inhibitor required to effect a 50% loss of activity of free enzyme. The IC50 value of each compound was determined as follows. Following a 10 minute incubation of a dilute solution of enzyme (2.56 nM) and inhibitor (<0.64 mM), a […] of this incubation mixture was then further diluted into 1 mL nitrocefin solution, and the rate of hydrolysis was measured during a 1 minute period by monitoring the absorbance of nitrocefin as a function of time.

[2] = biological target: Class C β-lactamase of Enterobacter cloacae P-99, a cephalosporinase (Enterobacter cloacae, UniProt P05364); experiment: biochemical
Class C β-lactamase of Enterobacter cloacae P-99, a cephalosporinase, sequence (P05364 21-381): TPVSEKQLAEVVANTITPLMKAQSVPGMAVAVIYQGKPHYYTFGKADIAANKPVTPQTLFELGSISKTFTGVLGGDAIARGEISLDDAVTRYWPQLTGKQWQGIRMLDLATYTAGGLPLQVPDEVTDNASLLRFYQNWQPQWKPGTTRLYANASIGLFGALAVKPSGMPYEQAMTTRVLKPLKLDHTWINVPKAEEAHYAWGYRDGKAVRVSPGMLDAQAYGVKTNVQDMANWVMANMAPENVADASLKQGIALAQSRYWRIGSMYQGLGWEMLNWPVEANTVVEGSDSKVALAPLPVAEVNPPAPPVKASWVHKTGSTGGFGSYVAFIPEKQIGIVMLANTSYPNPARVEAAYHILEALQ
Procedure: as §1

[3] = class C β-lactamase, 10 minute incubation of enzyme (2.56 nM) and inhibitor, nitrocefin substrate, read-out: P99 (IC50, μm)

In the case of O=C(O)C1=C(Cl)CS(=O)(=O)C2C(=Cc3ccccn3)C(=O)N12 (centres unmarked) [Compound 7a, Sodium 3-chloro-1,1-dioxo-7-(2′-pyridylmethylidine)-3-cephem-4-carboxylate], the pIC50 [1] was 5.74 and the pIC50 [2, 3] was 8.52.

Molecule O=C(O)C1=C(Br)CS(=O)(=O)C2C(=Cc3ccccn3)C(=O)N12 (centres unmarked) [Compound 7b, Sodium 3-bromo-1,1-dioxo-7-(2′-pyridylmethylidine)-3-cephem-4-carboxylate] has a pIC50 [1] of 6.10 and a pIC50 [2] of 8.54.

O=C(O)C1=C(I)CS(=O)(=O)C2C(=Cc3ccccn3)C(=O)N12 (centres unmarked) [Compound 7c, Sodium 1,1-dioxo-3-iodo-7-(2′-pyridylmethylidine)-3-cephem-4-carboxylate] gave a pIC50 [1] of 5.89 and a pIC50 [2] of 8.33.

Molecule CSC1=C(C(=O)O)N2C(=O)C(=Cc3ccccn3)C2S(=O)(=O)C1 (centres unmarked) [Compound 9a, Sodium 1,1-dioxo-3-methylsulfanyl-7-(2′-pyridylmethylidine)-3-cephem-4-carboxylate] has a pIC50 [1] of 5.97 and a pIC50 [2] of 7.23.

In the case of O=C(O)C1=C(Sc2ccccc2)CS(=O)(=O)C2C(=Cc3ccccn3)C(=O)N12 (centres unmarked) [Compound 9b, Sodium 1,1-dioxo-3-phenylsulfanyl-7-(2′-pyridylmethylidine)-3-cephem-4-carboxylate], the pIC50 [1] was 7.92 and the pIC50 [2, 3] was 7.66.

O=C(O)C1=C(c2cccs2)CS(=O)(=O)C2C(=Cc3ccccn3)C(=O)N12 (centres unmarked) [Compound 9c, Sodium 1,1-dioxo-7-(2′-pyridylmethylidine)-3-(thiophen-2′-yl)-3-cephem-4-carboxylate] was tested, and the pIC50 [1] was 5.45 and the pIC50 [2] was 7.37.

With O=C(O)C1=C(c2ccccc2)CS(=O)(=O)C2C(=Cc3ccccn3)C(=O)N12 (centres unmarked) [Compound 9d, Sodium 1,1-dioxo-3-phenyl-7-(2′-pyridylmethylidine)-3-cephem-4-carboxylate] the pIC50 [1] was 5.04 and the pIC50 [2, 3] was 7.42.

With CS(=O)(=O)C1=C(C(=O)O)N2C(=O)C(=Cc3ccccn3)C2S(=O)(=O)C1 (centres unmarked) [Compound 11a, Sodium 1,1-dioxo-3-methylsulfonyl-7-(2′-pyridylmethylidine)-3-cephem-4-carboxylate] the pIC50 [1] was 8.12 and the pIC50 [2] was 7.04.

In the case of O=C(O)C1=C(S(=O)(=O)c2ccccc2)CS(=O)(=O)C2C(=Cc3ccccn3)C(=O)N12 (centres unmarked) [Compound 11b, Sodium 1,1-dioxo-3-phenylsulfonyl-7-(2′-pyridylmethylidine)-3-cephem-4-carboxylate], the pIC50 [1] was 8.03 and the pIC50 [2] was 6.76.

Molecule O=C(O)C1=C(F)CS(=O)(=O)C2C(=Cc3ccccn3)C(=O)N12 (centres unmarked) [Compound 14a, Sodium 1,1-dioxo-3-fluoro-7-(2′-pyridylmethylidine)-3-cephem-4-carboxylate] has a pIC50 [1] of 5.74 and a pIC50 [2, 3] of 7.96.

For O=C(O)C1=CCS(=O)(=O)C2C(=Cc3ccccn3)C(=O)N12 (centres unmarked) [Compound 14b, Sodium 1,1-dioxo-7-(2 ′-pyridylmethylidine)-3-cephem-4-carboxylate], the pIC50 [1] was 4.73 and the pIC50 [2] was 6.94.

In the case of O=C(C=CC1=C(C(=O)O)N2C(=O)C(=Cc3ccccn3)C2S(=O)(=O)C1)NC1CC1 (centres unmarked) [Compound 18a], the pIC50 [1] was 6.62 and the pIC50 [2, 3] was 6.08.

O=C(C=CC1=C(C(=O)O)N2C(=O)C(=Cc3ccccn3)C2S(=O)(=O)C1)NO (centres unmarked) [Compound 18b, Sodium 3-(N-hydroxy-2′-carbamoylvinyl)-1,1-dioxo-7-(2″-pyridylmethylidine)-3-cephem-4-carboxylate] was tested, and the pIC50 [1] was 5.11 and the pIC50 [2] was 6.89.

NNC(=O)C=CC1=C(C(=O)O)N2C(=O)C(=Cc3ccccn3)C2S(=O)(=O)C1 (centres unmarked) [Compound 21a] showed a pIC50 [1] of 6.41 and a pIC50 [2, 3] of 5.96.

For NCCCNC(=O)C=CC1=C(C(=O)O)N2C(=O)C(=Cc3ccccn3)C2S(=O)(=O)C1 (centres unmarked) [Compound 21b, Sodium 3-{[N-(3″-aminopropyl)-2′-carbamoyl]vinyl)}-1,1-dioxo-7-(2′″-pyridylmethylidine-3-cephem-4-carboxylate], the pIC50 [1] was 5.80 and the pIC50 [2, 3] was 5.38.

Work on CN1CCN(C(=O)C=CC2=C(C(=O)O)N3C(=O)C(=Cc4ccccn4)C3S(=O)(=O)C2)CC1 (centres unmarked) [Compound 21c, Sodium 3-[3 ′-(4″-methylpiperazin-1″-yl)-3′-oxopropenyl]-1,1-dioxo-7-(2′″-puridylmethylidine)-3-cephem-4-carboxylate] yielded a pIC50 [1] of 7.28 and a pIC50 [2] of 5.20.
